According to ChEMBL document CHEMBL1149935, “17-hydroxywortmannin: A potent inhibitor of bone resorption and phosphatidylinositol-3-kinase” (Bioorg Med Chem Lett, 1995):

How the values were obtained:
[1] = Inhibition of bovine Phosphatidylinositol 3-kinase; design: species or system Bos taurus
[2] = organism: Gallus gallus; assay: Compound was evaluated for inhibitory activity against bone resorption in avian osteoclast

IC50 [1] [nM] | IC50 [2] [nM] | SMILES
4600 | > 1000 | COC(=O)c1coc2c(O)c3c(c(C)c12)C=C[C@]1(C)C(=O)CC[C@@H]31
16.7 | 506 | COC[C@H]1OC(=O)c2coc3c2[C@@]1(C)C1=C(C3=O)[C@@H]2CCC(=O)[C@@]2(C)CC1
> 500 | > 1000 | COC[C@H]1OC(=O)c2c(C)oc3c2[C@@]1(C)C1=C(C3=O)[C@@H]2CCC(=O)[C@@]2(C)C[C@H]1OC(C)=O
> 32000 | > 1000 | Cc1c2c(c(O)c3occ(C(=O)O)c13)C1CCC(=O)[C@@]1(C)C=C2 (stereo partly drawn)
> 50000 | 100 | NCCCC(O)(P(=O)(O)O)P(=O)(O)O [ALENDRONIC ACID]
> 50000 | 100000 | CC(O)(P(=O)(O)O)P(=O)(O)O [ETIDRONIC ACID]

SMILES | IC50 [1] [nM] | IC50 [2] [nM]
COC[C@H]1OC(=O)c2coc3c2[C@@]1(C)C1=CC[C@]2(C)C(=O)CC[C@H]2C1C3=O (stereo partly drawn) | 54 | 
COC[C@H]1OC(=O)c2coc3c2[C@@]1(C)C1=C(C3=O)[C@@H]2CC[C@H](O)[C@@]2(C)C[C@H]1OC(C)=O | 0.5 | 10
COC[C@H]1OC(=O)c2coc3c2[C@@]1(C)C1=C(C3=O)C2CCC(O)[C@@]2(C)CC1 (stereo partly drawn) |  | 103
COC[C@H]1OC(=O)c2coc3c2[C@@]1(C)C1=C(C3=O)[C@@H]2CCC(=O)[C@@]2(C)C[C@H]1OC(C)=O [WORTMANNIN] | 4.2 | 98
